From patent US6825230B2, “Spiro and dispiro 1,2,4-trixolane antimalarials” (Medicines for Malaria Venture MMV, priority 2002, dated 2004)
In brackets after ≈: the same amount, converted by molar mass. Read-outs that look alike come from different tables or passages of the source.

Legend:
[1] = system: ANKA strain of P. berghei; assay: Single dose STI in vivo screen in infected mice; set-up: species or system Plasmodium berghei; conditions: for Survival (days) 10 mg/kg po: single 10 mg/kg po in 3% ethanol and 7% Tween 80; for Survival (days) 10 mg/kg po / Survival (days) 10 mg/kg SSV po / Survival (days) 10 mg/kg sc: untreated 6-7 days; for Activity (%) 10 mg/kg po: single 10 mg/kg po in 3% ethanol and 7% Tween 80 on day 1 post-infection; for Activity (%) 10 mg/kg po / Activity (%) 10 mg/kg SSV po / Activity (%) 10 mg/kg sc / Activity (%) 3 mg/kg SSV po: percent reduction in parasitemia on day 3; for Survival (days) 10 mg/kg SSV po: single 10 mg/kg po in SSV; for Activity (%) 10 mg/kg SSV po: single 10 mg/kg po in standard suspending vehicle (SSV) on day 1 post-infection; for Survival (days) 10 mg/kg sc: single 10 mg/kg sc in 3% ethanol and 7% Tween 80; for Activity (%) 10 mg/kg sc: single 10 mg/kg sc in 3% ethanol and 7% Tween 80 on day 1 post-infection; for Survival (days) 3 mg/kg SSV po / Activity (%) 3 mg/kg SSV po: single 3 mg/kg po in SSV
[2] = system: chloroquine-resistant K1 strain of P. falciparum; assay: In vitro antimalarial semiautomated microdilution assay ([3H]-hypoxanthine incorporation), K1 strain; format: cell-based, Plasmodium falciparum; conditions: Plasmodium falciparum
Protocol: (§1) Various OZ compounds were tested by the semiautomated microdilution assay against intraerythrocytic forms of Plasmodium falciparum derived from asynchronous stock cultures.
(§2) Fifty percent inhibitory concentration (IC50) were estimated by Logit regression analysis.

[3] = system: chloroquine-sensitive NF54 strain of P. falciparum; assay: In vitro antimalarial semiautomated microdilution assay ([3H]-hypoxanthine incorporation), NF54 strain; format: cell-based, Plasmodium falciparum; conditions: Plasmodium falciparum
Protocol: as §1, §2

[4] = K1, 72 h, read-out: IC50 (ng/ml) K1, chloroquine-resistant K1 strain, 72 h incubation
[5] = NF54, 72 h, read-out: IC50 (ng/ml) NF54, chloroquine-sensitive NF54 strain, 72 h incubation
[6] = chloroquine-resistant K1 strain, 72 h incubation, read-out: IC50 (ng/ml) K1
[7] = chloroquine-sensitive NF54 strain, 72 h incubation, read-out: IC50 (ng/ml) NF54

Structure (SMILES) | Survival (days) 10 mg/kg po [1] [days] | Activity (%) 10 mg/kg po [1] | Survival (days) 10 mg/kg SSV po [1] | Activity (%) 10 mg/kg SSV po [1] | Survival (days) 10 mg/kg sc [1] [days] | Activity (%) 10 mg/kg sc [1] | IC50 [2, 4] [ng/mL] | IC50 [3, 5] [ng/mL] | IC50 [2, 6] [ng/mL] | IC50 [3, 7] [ng/mL] | Survival (days) 3 mg/kg SSV po [1] [days] | Activity (%) 3 mg/kg SSV po [1] [%]
Fc1ccc(NC2CCC3(CC2)OOC2(O3)C3CC4CC(C3)CC2C4)cc1 (centres unmarked) [OZ201] | 13 | 100/100/100% | 10.3 days | 100/100/100% | 25 | 100/100/100% | 2 (≈ 5.36 nM) | 3.1 (≈ 8.3 nM) |  |  |  | 
S=C(Nc1ccccc1)N1CCC2(CC1)OOC1(O2)C2CC3CC(C2)CC1C3 (centres unmarked) [OZ144, Adamantane-2-spiro-3′-8′-(phenylaminothiocarbonyl)-1′,2′,4′-trioxa-8′-azaspiro[4.5]decane] | 7.3 | 99.45% | 7.3 days | 92% | 16.7 | 99.94% | 1.4 (≈ 3.5 nM) | 2.1 (≈ 5.24 nM) |  |  |  | 
BrC[C@H]1CC[C@]2(CC1)OOC1(O2)C2CC3CC(C2)CC1C3 (some centres unmarked) [OZ123] | 8.0 | 99.66% | 7.0 days | 94% | 16 | 99.96% |  |  | 1.6 (≈ 4.48 nM) | 1.9 (≈ 5.32 nM) |  | 
c1csc(NC[C@H]2CC[C@]3(CC2)OOC2(O3)C3CC4CC(C3)CC2C4)n1 (some centres unmarked) [OZ252] | 8.3 | 98.91% | 9.0 days | 99.49% | 9.3 | 99.82% |  |  | 2.3 (≈ 6.11 nM) | 2.2 (≈ 5.84 nM) |  | 
OC1(Cc2ccccn2)CCC2(CC1)OOC1(O2)C2CC3CC(C2)CC1C3 (centres unmarked) [OZ275] |  |  | 7.3/ND days | 68/ND % |  |  | 0.66 (≈ 1.78 nM) | 0.74 (≈ 1.99 nM) |  |  |  | 
NNC(=O)C[C@H]1CC[C@]2(CC1)OO[C@]1(O2)C2CC3CC(C2)CC1C3 [OZ340] |  |  | 9.2 days | 93% |  |  | 4.9 (≈ 14.6 nM) | 2.9 (≈ 8.62 nM) |  |  | 6.4 | 36
O=C(NO)c1ccc([C@H]2CC[C@]3(CC2)OOC2(O3)C3CC4CC(C3)CC2C4)cc1 (some centres unmarked) [OZ183] | 6.0 | 65% | 6.0 days | 19% | 8.3 | 81% | 0.8 (≈ 2 nM) | 2.1 (≈ 5.26 nM) |  |  |  | 
C1C2CC3CC1CC(C2)C31OO[C@]2(CC[C@@H](CN(C[C@H]3CC[C@]4(CC3)OOC3(O4)C4CC5CC(C4)CC3C5)C3CC3)CC2)O1 (stereo partly drawn) [OZ254, N,N-Bis(cis-adamantane-2-spiro-3′-1′,2′,4′-trioxaspiro[4.5]decane-8′-methyl)cyclopropylamine] | 6.0 | 27% | 5.7 days | 11% | 5.7 | 2% |  |  | > 100 | 57 (≈ 93.5 nM) |  | 
CN1CCN(C(=O)NC[C@H]2CC[C@]3(CC2)OOC2(O3)C3CC4CC(C3)CC2C4)CC1 (some centres unmarked) [OZ267] | 8.3 | 99.92% | 8.7 days | 99.89% | 9.3 | 99.97% |  |  | 0.2 (≈ 0.477 nM) | 0.34 (≈ 0.81 nM) |  | 
O=C(C[C@H]1CC[C@]2(CC1)OO[C@]1(O2)C2CC3CC(C2)CC1C3)NCCN1CCOCC1 [OZ313] |  |  | 10.4 days |  |  |  | 0.55 (≈ 1.27 nM) | 0.76 (≈ 1.75 nM) |  |  | 7.4 | 58
CN(C)C[C@H]1CC[C@]2(CC1)OOC1(O2)C2CC3CC(C2)CC1C3 (some centres unmarked) [OZ232] | 8.0 | 76% | 7.3 days | 74% | 8.7 | 99.94% | 0.3 (≈ 0.933 nM) | 0.5 (≈ 1.56 nM) |  |  |  | 
O=C(O)c1nccnc1C(=O)N1CCC2(CC1)OOC1(O2)C2CC3CC(C2)CC1C3 (centres unmarked) [OZ109, Adamantane-2-spiro-3′-8′-[(3′-carboxypyrazinyl)carbonyl]-1′,2′,4′-trioxa-8′-azaspiro[4.5]decane] | 5.7 | 2% | 5.7 days | 0% | 6.3 | 24% | 21 (≈ 50.5 nM) | 24 (≈ 57.8 nM) |  |  |  | 
FC1(c2ccccc2)CCC2(CC1)OOC1(O2)C2CC3CC(C2)CC1C3 (centres unmarked) [OZ274] |  |  | 7.0/ND days | 11/ND % |  |  | 5.1 (≈ 14.2 nM) | 5.7 (≈ 15.9 nM) |  |  |  | 
O=C(CN1C(=O)c2ccccc2C1=O)N1CCC2(CC1)OOC1(O2)C2CC3CC(C2)CC1C3 (centres unmarked) [OZ93, Adamantane-2-spiro-3′-8′-(phthalimidoacetyl)-1′,2′,4′-trioxa-8′-azaspiro[4.5]decane] | 6.7 | 57% | 6.0 days | 3% | 13.3 | 100% | 3.3 (≈ 7.29 nM) | 0.92 (≈ 2.03 nM) |  |  |  | 
O=C(O)c1cncn1C[C@H]1CC[C@]2(CC1)OOC1(O2)C2CC3CC(C2)CC1C3 (stereo partly drawn) [OZ231, cis-Adamantane-2-spiro-3′-8′-(5′-carboxy-1′H-imidazol-1′-ylmethyl)-1′,2′,4′-30 trioxaspiro[4.5]decane] | 5.3 | 0/0/0% | 5.7 days | 0/0/0% | 6.0 | 0/0/0% | > 10 | > 10 |  |  |  | 
OCC1(CO)COC2(CCC3(CC2)OOC2(O3)C3CC4CC(C3)CC2C4)OC1 (centres unmarked) [OZ121, Adamantane-2-spiro-3′-11′,11′-bis(hydroxymethyl)-1′,2′,4′,9′,13′-pentaoxadispiro[4.2.5.2]pentadecane] | 7.3 | 91% | 8.0 days | 98% | 7.3 | 99.61% | 0.96 (≈ 2.42 nM) | 0.41 (≈ 1.03 nM) |  |  |  | 
CN(C)C(=O)NC[C@H]1CC[C@]2(CC1)OOC1(O2)C2CC3CC(C2)CC1C3 (some centres unmarked) [OZ266] | 13.7 | 99% | 11.7 days | 99.39% | 11.7 | 99.75% |  |  | 1.1 (≈ 3.02 nM) | 1.5 (≈ 4.12 nM) |  | 
O=C(O)C1(C(=O)O)COC2(CCC3(CC2)OOC2(O3)C3CC4CC(C3)CC2C4)OC1 (centres unmarked) [OZ122, Adamantane-2-spiro-3′-11′,11′-dicarboxy-1′,2′,4′,9′,13′-pentaoxadispiro[4.2.5.2]pentadecane] | 5.7 | 10% | 5.3 days | 3% | 5.0 | 0% |  |  | > 100 | > 100 |  | 
